Experimental data from patent publication US7371766B2, “Curcumin analogs with anti-tumor and anti-angiogenic properties” (Emory University, priority 1999, dated 2008).

Columns and labels:
CCRF-CEM = conditions: read-out: Median Growth Inhibitory Concentration (GI50), Leukemia, 48 hours
HL-60 (TB) = conditions: read-out: Median Growth Inhibitory Concentration (GI50), Leukemia, 48 hours
SR = conditions: read-out: Median Growth Inhibitory Concentration (GI50), Leukemia, 48 hours
EKVX = conditions: read-out: Median Growth Inhibitory Concentration (GI50), Non-Small Cell Lung Cancer, 48 hours
HOP-92 = conditions: read-out: Median Growth Inhibitory Concentration (GI50); HOP-92, Non-Small Cell Lung Cancer; 48 hours
NCI-H23 = conditions: read-out: Median Growth Inhibitory Concentration (GI50); NCI-H23, Non-Small Cell Lung Cancer; 48 hours
NCI-H460 = conditions: read-out: Median Growth Inhibitory Concentration (GI50); NCI-H460, Non-Small Cell Lung Cancer; 48 hours
NCI-H522 = conditions: read-out: Median Growth Inhibitory Concentration (GI50); NCI-H522, Non-Small Cell Lung Cancer; 48 hours
COLO 205 = conditions: read-out: Median Growth Inhibitory Concentration (GI50); COLO 205, Colon Cancer; 48 hours
HT29 = conditions: read-out: Median Growth Inhibitory Concentration (GI50); HT29, Colon Cancer; 48 hours
SW-620 = conditions: read-out: Median Growth Inhibitory Concentration (GI50); SW-620, Colon Cancer; 48 hours
SF-268 = conditions: read-out: Median Growth Inhibitory Concentration (GI50); SF-268, CNS Cancer; 48 hours
SF-539 = conditions: read-out: Median Growth Inhibitory Concentration (GI50); SF-539, CNS Cancer; 48 hours
SNB-75 = conditions: read-out: Median Growth Inhibitory Concentration (GI50); SNB-75, CNS Cancer; 48 hours
U251 = conditions: read-out: Median Growth Inhibitory Concentration (GI50); U251, CNS Cancer; 48 hours
M14 = conditions: read-out: Median Growth Inhibitory Concentration (GI50); M14, Melanoma; 48 hours
SK-MEL-2 = conditions: read-out: Median Growth Inhibitory Concentration (GI50); SK-MEL-2, Melanoma; 48 hours
SK-MEL-28 = conditions: read-out: Median Growth Inhibitory Concentration (GI50); SK-MEL-28, Melanoma; 48 hours
IGROV1 = conditions: read-out: Median Growth Inhibitory Concentration (GI50); IGROV1, Ovarian Cancer; 48 hours
OVCAR-3 = conditions: read-out: Median Growth Inhibitory Concentration (GI50); OVCAR-3, Ovarian Cancer; 48 hours
OVCAR-8 = conditions: read-out: Median Growth Inhibitory Concentration (GI50); OVCAR-8, Ovarian Cancer; 48 hours
SK-OV-3 = conditions: read-out: Median Growth Inhibitory Concentration (GI50); SK-OV-3, Ovarian Cancer; 48 hours
A498 = conditions: read-out: Median Growth Inhibitory Concentration (GI50); A498, Renal Cancer; 48 hours
ACHN = conditions: read-out: Median Growth Inhibitory Concentration (GI50), Renal Cancer, 48 hours
CAKI-1 = conditions: read-out: Median Growth Inhibitory Concentration (GI50); CAKI-1, Renal Cancer; 48 hours
RXF 393 = conditions: read-out: Median Growth Inhibitory Concentration (GI50); RXF 393, Renal Cancer; 48 hours
TK-10 = conditions: read-out: Median Growth Inhibitory Concentration (GI50); TK-10, Renal Cancer; 48 hours
UO-31 = conditions: read-out: Median Growth Inhibitory Concentration (GI50); UO-31, Renal Cancer; 48 hours
DU-145 = conditions: read-out: Median Growth Inhibitory Concentration (GI50); DU-145, Prostate Cancer; 48 hours
NCI/ADR-RES = conditions: read-out: Median Growth Inhibitory Concentration (GI50), Breast Cancer, 48 hours
MDA-MB-231 = conditions: read-out: Median Growth Inhibitory Concentration (GI50); MDA-MB-231, Breast Cancer; 48 hours
HS 578T = conditions: read-out: Median Growth Inhibitory Concentration (GI50), Breast Cancer, 48 hours

“3,5-Bis(2-hydroxybenzylidene)-sulfone [EF11]” showed a GI50 (CCRF-CEM) of 22 µM, a GI50 (HL-60 (TB)) of 21.3 µM and a GI50 (SR) of 21.5 µM. For the same compound, the GI50 (EKVX) was 30.6 µM, the GI50 (HOP-92) was 23.5 µM and the GI50 (NCI-H23) was 35.8 µM. The GI50 (NCI-H460) was 30.7 µM, the GI50 (NCI-H522) was 33.3 µM and the GI50 (COLO 205) was 39.6 µM. For the same compound, the GI50 (HT29) was 45.9 µM, the GI50 (SW-620) was 32.5 µM and the GI50 (SF-268) was 24.6 µM. For the same compound, the GI50 (SF-539) was 39.9 µM, the GI50 (SNB-75) was 20.3 µM and the GI50 (U251) was 35.7 µM. For the same compound, the GI50 (M14) was 33.9 µM, the GI50 (SK-MEL-2) was 24 µM and the GI50 (SK-MEL-28) was 42.5 µM. It also gave a GI50 (IGROV1) of 35.9 µM, a GI50 (OVCAR-3) of 41.8 µM and a GI50 (OVCAR-8) of 47.1 µM. For the same compound, the GI50 (SK-OV-3) was over 100 µM, the GI50 (A498) was 34.2 µM and the GI50 (ACHN) was 41 µM. For the same compound, the GI50 (CAKI-1) was 29.2 µM, the GI50 (RXF 393) was 39 µM and the GI50 (TK-10) was 41.2 µM. For the same compound, the GI50 (UO-31) was 28.4 µM, the GI50 (DU-145) was 29.9 µM and the GI50 (NCI/ADR-RES) was 86.1 µM. The GI50 (MDA-MB-231) was 25.6 µM and the GI50 (HS 578T) was 52.1 µM.

`N.N.[Cl][Pt][Cl]` [Cisplatin, reference compound] showed a GI50 (CCRF-CEM) of 0.2 µM, a GI50 (HL-60 (TB)) of 0.1 µM and a GI50 (SR) of 0.1 µM. For the same compound, the GI50 (EKVX) was 1.6 µM, the GI50 (HOP-92) was 0.6 µM and the GI50 (NCI-H23) was 0.1 µM. It also gave a GI50 (NCI-H460) of 0.1 µM, a GI50 (NCI-H522) of 0.8 µM and a GI50 (COLO 205) of 4 µM. The GI50 (HT29) was 1.3 µM, the GI50 (SW-620) was 0.8 µM and the GI50 (SF-268) was 0.2 µM. The GI50 (SF-539) was 0.4 µM, the GI50 (SNB-75) was 0.6 µM and the GI50 (U251) was 0.4 µM. It also gave a GI50 (M14) of 0.3 µM, a GI50 (SK-MEL-2) of 1.3 µM and a GI50 (SK-MEL-28) of 0.8 µM. It also gave a GI50 (IGROV1) of 0.6 µM, a GI50 (OVCAR-3) of 1 µM and a GI50 (OVCAR-8) of 1 µM. The GI50 (SK-OV-3) was 1.3 µM, the GI50 (A498) was 2 µM and the GI50 (ACHN) was 0.5 µM. The GI50 (CAKI-1) was 0.3 µM, the GI50 (RXF 393) was 0.8 µM and the GI50 (TK-10) was 1.3 µM. The GI50 (UO-31) was 0.8 µM, the GI50 (DU-145) was 0.4 µM and the GI50 (NCI/ADR-RES) was 0.8 µM. The GI50 (MDA-MB-231) was 3.2 µM and the GI50 (HS 578T) was 1.3 µM.
